From the supplement of paper PMC11451515

Tested on: SEM cells
Test: cell viability relative to DMSO control; higher = less cytotoxic
Details: 48 h
How it was run: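 NOMO1 or SEM cells were plated at 500 cells/well and P12-Ichikawa cells at 1000 cells/well in 1536-well plates (5 μl), after each leukemia line had been adapted for at least four passages in each medium. Pin dosing delivered library compounds in DMSO at 11 threefold concentrations, 47 μM to 0.79 nM. CellTiter-Glo One luminescence was read after 48 h at 37°C. Viability is reported as a per-plate percentage of DMSO wells, with cell-free wells as background.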

[1] = HPLM + 10% dialyzed FBS, 0.000781 µM
[2] = HPLM + 10% dialyzed FBS, 0.00234 µM
[3] = HPLM + 10% dialyzed FBS, 0.00702 µM
[4] = HPLM + 10% dialyzed FBS, 0.0211 µM
[5] = HPLM + 10% dialyzed FBS, 0.0632 µM
[6] = HPLM + 10% dialyzed FBS, 0.19 µM
[7] = HPLM + 10% dialyzed FBS, 0.569 µM
[8] = HPLM + 10% dialyzed FBS, 1.71 µM
[9] = HPLM + 10% dialyzed FBS, 5.12 µM
[10] = HPLM + 10% dialyzed FBS, 15.4 µM
[11] = HPLM + 10% dialyzed FBS, 46.1 µM
[12] = RPMI 5 mM glucose + 10% FBS, 0.000781 µM
[13] = RPMI 5 mM glucose + 10% FBS, 0.00234 µM
[14] = RPMI 5 mM glucose + 10% FBS, 0.00702 µM
[15] = RPMI 5 mM glucose + 10% FBS, 0.0211 µM
[16] = RPMI 5 mM glucose + 10% FBS, 0.0632 µM
[17] = RPMI 5 mM glucose + 10% FBS, 0.19 µM
[18] = RPMI 5 mM glucose + 10% FBS, 0.569 µM
[19] = RPMI 5 mM glucose + 10% FBS, 1.71 µM
[20] = RPMI 5 mM glucose + 10% FBS, 5.12 µM
[21] = RPMI 5 mM glucose + 10% FBS, 15.4 µM
[22] = RPMI 5 mM glucose + 10% FBS, 46.1 µM
[23] = RPMI 5 mM glucose + 10% dialyzed FBS, 0.000781 µM
[24] = RPMI 5 mM glucose + 10% dialyzed FBS, 0.00234 µM
[25] = RPMI 5 mM glucose + 10% dialyzed FBS, 0.00702 µM
[26] = RPMI 5 mM glucose + 10% dialyzed FBS, 0.0211 µM
[27] = RPMI 5 mM glucose + 10% dialyzed FBS, 0.0632 µM
[28] = RPMI 5 mM glucose + 10% dialyzed FBS, 0.19 µM
[29] = RPMI 5 mM glucose + 10% dialyzed FBS, 0.569 µM
[30] = RPMI 5 mM glucose + 10% dialyzed FBS, 1.71 µM
[31] = RPMI 5 mM glucose + 10% dialyzed FBS, 5.12 µM
[32] = RPMI 5 mM glucose + 10% dialyzed FBS, 15.4 µM
[33] = RPMI 5 mM glucose + 10% dialyzed FBS, 46.1 µM

Compound	cell viability [1] [%]	cell viability [2] [%]	cell viability [3] [%]	cell viability [4] [%]	cell viability [5] [%]	cell viability [6] [%]	cell viability [7] [%]	cell viability [8] [%]	cell viability [9] [%]	cell viability [10] [%]	cell viability [11] [%]	cell viability [12] [%]	cell viability [13] [%]	cell viability [14] [%]	cell viability [15] [%]	cell viability [16] [%]	cell viability [17] [%]	cell viability [18] [%]	cell viability [19] [%]	cell viability [20] [%]	cell viability [21] [%]	cell viability [22] [%]	cell viability [23] [%]	cell viability [24] [%]	cell viability [25] [%]	cell viability [26] [%]	cell viability [27] [%]	cell viability [28] [%]	cell viability [29] [%]	cell viability [30] [%]	cell viability [31] [%]	cell viability [32] [%]	cell viability [33] [%]
CC/1=C(/N2[C@H](SC1)[C@H](NC(=O)C(N)C3=CC=CC=C3)C2=O)C(O)=O (some centres undefined)	99.3	113	119	110	108	120	120	124	114	126	131	128	118	117	132	155	138	129	141	136	122	131	115	119	137	143	129	140	132	142	132	130	134
OCCn1cc(-c2cnc3nnn(Cc4ccc5ncccc5c4)c3n2)cn1	102	107	99.5	98.1	97.9	89.3	89.5	91.5	85.3	72.1	38.5	122	138	124	133	120	116	109	90.7	82.1	73.9	26.6	84.6	97.9	102	108	107	106	118	97.3	82	60.5	33.4
COc1cccc2c1[C@]13CCN(CC4CC4)[C@H](C2)[C@]1(OC)CCC(=O)C3	71.3	90.6	20	108	106	105	107	109	116	120	111	89.4	123	8.7	113	116	107	97	113	122	98.4	110	81.2	108	18.8	99.8	105	106	84.6	97.4	93.3	95.6	80.7
CC(C)C[C@H](NC(=O)[C@@H](O)[C@H](N)Cc1ccccc1)C(=O)O	86	122	121	131	136	119	114	128	120	114	10.7	59.2	122	127	123	133	115	118	121	109	117	8.04	62.3	119	136	135	129	123	127	132	131	116	13.2
C=CCc1ccc(O)c(-c2ccc(O)c(CC=C)c2)c1	103	107	109	95.3	120	112	105	56.1	40.6	40.4	37.6	78.6	88.8	93.2	85.1	93.6	108	79.1	20	14.7	21.4	17.6	98.8	101	109	89.6	109	107	94	27.2	20.6	21.4	24.6
NC/1=N/C(=O)N(/C=N1)[C@@H]2O[C@H](CO)[C@@H](O)[C@H]2O	85.7	107	117	106	76.2	100	104	105	75.4	24.5	3.65	95.7	107	99.5	102	70.9	110	90.4	94.8	75.1	35.3	7.85	90.8	87.8	82	90.1	69.7	93.5	82.3	74.6	38.9	6.43	3.29
COc1cc(CNC(=O)CCCC/C=C/C(C)C)ccc1O	88.8	92.6	104	99	101	96.6	79.7	36.7	32.9	29.7	18.6	110	110	121	123	107	111	56.7	19.3	21.4	15.9	12.5	94.3	93.2	98.7	101	94.6	93.8	86.6	23.6	27.2	19	15.4
NC(=O)Nc1cc(-c2cccc(F)c2)sc1C(=O)N[C@H]1CCCNC1	88.8	62	66.4	46.3	38.2	28.6	27.5	27.1	23.3	19	20.3	110	84.4	71.6	45.2	45	37.6	32.7	27.7	20.4	11.3	13.7	98.9	69.4	52.4	44.5	32.2	26.3	25.5	21.3	16.7	12.4	10.6
